Species: Rattus norvegicus
Assay: DrugMatrix - Regimen: Daily Repeat
Format: toxicity, organism-based, Sprague-Dawley
Parameters: regimen Daily Repeat, gender Male, age 6-8 weeks
Settings: in vivo, po, route oral GAVAGE, […]; for ABSOLUTE BASOPHIL / BASOPHIL / ABSOLUTE EOSINOPHIL / ABSOLUTE LYMPHOCYTE / ABSOLUTE MONOCYTE / ABSOLUTE SEGMENTED NEUTROPHIL / EOSINOPHIL / ERYTHROCYTE COUNT / HEMATOCRIT / HEMOGLOBIN / LEUKOCYTE COUNT / LYMPHOCYTE / MEAN CORPUSCULAR HEMOGLOBIN / MEAN CORPUSCULAR HEMOGLOBIN CONCENTRATION / MEAN CORPUSCULAR VOLUME / MONOCYTE / NEUTROPHIL / NUCLEATED RED BLOOD CELLS / PLATELET COUNT: tissue Blood; for ALANINE AMINOTRANSFERASE / ALBUMIN / ALKALINE PHOSPHATASE / ASPARTATE AMINOTRANSFERASE / BLOOD UREA NITROGEN / CARBON DIOXIDE / CHLORIDE / CHOLESTEROL / CREATINE PHOSPHOKINASE / CREATININE / GLUCOSE / LACTATE DEHYDROGENASE / LIPASE / PHOSPHORUS / POTASSIUM / SODIUM / TOTAL BILIRUBIN / TOTAL PROTEIN / URIC ACID: tissue Plasma
[1] = 0 mg/kg, 72 h, dose level Control, time 3 day
[2] = 0 mg/kg, 120 h, dose level Control, time 5 day
[3] = 4 mg/kg, 72 h, dose level Low, time 3 day
[4] = 4 mg/kg, 120 h, dose level Low, time 5 day
[5] = 16 mg/kg, 72 h, dose level High, time 3 day
[6] = 16 mg/kg, 120 h, dose level High, time 5 day

Q: What does the source list for `O=NN(CCCl)C(=O)NCCCl` [CARMUSTINE]?
A: ABSOLUTE BASOPHIL [1]: 0 CELLS/uL; BASOPHIL [1]: 0%; ABSOLUTE BASOPHIL [2]: 0 CELLS/uL; ABSOLUTE EOSINOPHIL [2]: 0 CELLS/uL; ABSOLUTE LYMPHOCYTE [2]: 10431 CELLS/uL; ABSOLUTE MONOCYTE [2]: 90.5 CELLS/uL; ABSOLUTE SEGMENTED NEUTROPHIL [2]: 1111.83 CELLS/uL; BASOPHIL [2]: 0%; EOSINOPHIL [2]: 0%; ERYTHROCYTE COUNT [2]: 5.51 x10E6/uL; HEMATOCRIT [2]: 34.67%; HEMOGLOBIN [2]: 13.5 G/DL; LEUKOCYTE COUNT [2]: 11.63 x10E3/uL; LYMPHOCYTE [2]: 89.67%; MEAN CORPUSCULAR HEMOGLOBIN [2]: 24.5 pg; MEAN CORPUSCULAR HEMOGLOBIN CONCENTRATION [2]: 38.95 G/DL; MEAN CORPUSCULAR VOLUME [2]: 62.87 fL; MONOCYTE [2]: 0.67%; NEUTROPHIL [2]: 9.67%; NUCLEATED RED BLOOD CELLS [2]: 0 /100WBC; PLATELET COUNT [2]: 1052.67 x10E3/uL; ALANINE AMINOTRANSFERASE [2]: 54.67 u/L; ALBUMIN [2]: 4.15 G/DL; ALKALINE PHOSPHATASE [2]: 359.83 u/L; ASPARTATE AMINOTRANSFERASE [2]: 83 u/L; BLOOD UREA NITROGEN [2]: 13.5 mg/dL; CARBON DIOXIDE [2]: 27.17 mmol/L; CHLORIDE [2]: 98.5 MEQ/L; CHOLESTEROL [2]: 66.83 mg/dL; CREATINE PHOSPHOKINASE [2]: 256.17 u/L; CREATININE [2]: 0.19 mg/dL; GLUCOSE [2]: 171.33 mg/dL; LACTATE DEHYDROGENASE [2]: 91.5 u/L; LIPASE [2]: 10.5 u/L; PHOSPHORUS [2]: 8.72 mg/dL; POTASSIUM [2]: 5.34 MEQ/L; SODIUM [2]: 142.53 MEQ/L; TOTAL BILIRUBIN [2]: 0.2 mg/dL; TOTAL PROTEIN [2]: 6.05 G/DL; URIC ACID [2]: 0.6 mg/dL; ABSOLUTE BASOPHIL [3]: 0 CELLS/uL; ABSOLUTE EOSINOPHIL [3]: 0 CELLS/uL; ABSOLUTE LYMPHOCYTE [3]: 4876.33 CELLS/uL; ABSOLUTE MONOCYTE [3]: 48 CELLS/uL; ABSOLUTE SEGMENTED NEUTROPHIL [3]: 442.33 CELLS/uL; BASOPHIL [3]: 0%; EOSINOPHIL [3]: 0%; ERYTHROCYTE COUNT [3]: 5.3 x10E6/uL; HEMATOCRIT [3]: 33.47%; HEMOGLOBIN [3]: 13.1 G/DL; LEUKOCYTE COUNT [3]: 5.37 x10E3/uL; LYMPHOCYTE [3]: 90.67%; MEAN CORPUSCULAR HEMOGLOBIN [3]: 24.7 pg; MEAN CORPUSCULAR HEMOGLOBIN CONCENTRATION [3]: 39.13 G/DL; MEAN CORPUSCULAR VOLUME [3]: 63.13 fL; MONOCYTE [3]: 1%; NEUTROPHIL [3]: 8.33%; NUCLEATED RED BLOOD CELLS [3]: 0 /100WBC; PLATELET COUNT [3]: 1176.67 x10E3/uL; ALANINE AMINOTRANSFERASE [3]: 69.33 u/L; ALBUMIN [3]: 4.2 G/DL; ALKALINE PHOSPHATASE [3]: 310 u/L; ASPARTATE AMINOTRANSFERASE [3]: 124.67 u/L; BLOOD UREA NITROGEN [3]: 8.33 mg/dL; CARBON DIOXIDE [3]: 31.67 mmol/L; CHLORIDE [3]: 102 MEQ/L; CHOLESTEROL [3]: 70 mg/dL; CREATINE PHOSPHOKINASE [3]: 196 u/L; CREATININE [3]: 0.11 mg/dL; GLUCOSE [3]: 149.33 mg/dL; LACTATE DEHYDROGENASE [3]: 75.67 u/L; LIPASE [3]: 45 u/L; PHOSPHORUS [3]: 9.8 mg/dL; POTASSIUM [3]: 5.86 MEQ/L; SODIUM [3]: 147.15 MEQ/L; TOTAL BILIRUBIN [3]: 0.2 mg/dL; TOTAL PROTEIN [3]: 5.6 G/DL; URIC ACID [3]: 0.47 mg/dL; ABSOLUTE BASOPHIL [4]: 0 CELLS/uL; ABSOLUTE EOSINOPHIL [4]: 0 CELLS/uL; ABSOLUTE LYMPHOCYTE [4]: 3763.67 CELLS/uL; ABSOLUTE MONOCYTE [4]: 27 CELLS/uL; ABSOLUTE SEGMENTED NEUTROPHIL [4]: 142.67 CELLS/uL; BASOPHIL [4]: 0%; EOSINOPHIL [4]: 0%; ERYTHROCYTE COUNT [4]: 5.76 x10E6/uL; HEMATOCRIT [4]: 35.3%; HEMOGLOBIN [4]: 13.53 G/DL; LEUKOCYTE COUNT [4]: 3.93 x10E3/uL; LYMPHOCYTE [4]: 95.67%; MEAN CORPUSCULAR HEMOGLOBIN [4]: 23.5 pg; MEAN CORPUSCULAR HEMOGLOBIN CONCENTRATION [4]: 38.33 G/DL; MEAN CORPUSCULAR VOLUME [4]: 61.27 fL; MONOCYTE [4]: 0.67%; NEUTROPHIL [4]: 3.67%; NUCLEATED RED BLOOD CELLS [4]: 0 /100WBC; PLATELET COUNT [4]: 1079.33 x10E3/uL; ALANINE AMINOTRANSFERASE [4]: 65 u/L; ALBUMIN [4]: 4.4 G/DL; ALKALINE PHOSPHATASE [4]: 287.67 u/L; ASPARTATE AMINOTRANSFERASE [4]: 91.67 u/L; BLOOD UREA NITROGEN [4]: 10 mg/dL; CARBON DIOXIDE [4]: 27.67 mmol/L; CHLORIDE [4]: 101.33 MEQ/L; CHOLESTEROL [4]: 66.67 mg/dL; CREATINE PHOSPHOKINASE [4]: 256.67 u/L; CREATININE [4]: 0.22 mg/dL; GLUCOSE [4]: 159.33 mg/dL; LACTATE DEHYDROGENASE [4]: 67.33 u/L; LIPASE [4]: 10.67 u/L; PHOSPHORUS [4]: 8.57 mg/dL; POTASSIUM [4]: 5.14 MEQ/L; SODIUM [4]: 148.03 MEQ/L; TOTAL BILIRUBIN [4]: 0.13 mg/dL; TOTAL PROTEIN [4]: 6.3 G/DL; URIC ACID [4]: 0.57 mg/dL; ABSOLUTE BASOPHIL [5]: 0 CELLS/uL; ABSOLUTE EOSINOPHIL [5]: 0 CELLS/uL; BASOPHIL [5]: 0%; EOSINOPHIL [5]: 0%; TOTAL PROTEIN [5]: 11.13 G/DL; ABSOLUTE BASOPHIL [6]: 0 CELLS/uL; ABSOLUTE EOSINOPHIL [6]: 9 CELLS/uL; ABSOLUTE LYMPHOCYTE [6]: 2345.67 CELLS/uL; ABSOLUTE MONOCYTE [6]: 24.67 CELLS/uL; ABSOLUTE SEGMENTED NEUTROPHIL [6]: 87.33 CELLS/uL; BASOPHIL [6]: 0%; EOSINOPHIL [6]: 0.33%; ERYTHROCYTE COUNT [6]: 6.17 x10E6/uL; HEMATOCRIT [6]: 38.6%; HEMOGLOBIN [6]: 14.23 G/DL; LEUKOCYTE COUNT [6]: 2.47 x10E3/uL; LYMPHOCYTE [6]: 95%; MEAN CORPUSCULAR HEMOGLOBIN [6]: 23.1 pg; MEAN CORPUSCULAR HEMOGLOBIN CONCENTRATION [6]: 36.93 G/DL; MEAN CORPUSCULAR VOLUME [6]: 62.57 fL; MONOCYTE [6]: 1%; NEUTROPHIL [6]: 3.67%; NUCLEATED RED BLOOD CELLS [6]: 0 /100WBC; PLATELET COUNT [6]: 1131 x10E3/uL; ALANINE AMINOTRANSFERASE [6]: 102 u/L; ALBUMIN [6]: 3.93 G/DL; ALKALINE PHOSPHATASE [6]: 370.33 u/L; ASPARTATE AMINOTRANSFERASE [6]: 322 u/L; BLOOD UREA NITROGEN [6]: 8.33 mg/dL; CARBON DIOXIDE [6]: 27.67 mmol/L; CHLORIDE [6]: 98 MEQ/L; CHOLESTEROL [6]: 235 mg/dL; CREATINE PHOSPHOKINASE [6]: 236.67 u/L; CREATININE [6]: 0.21 mg/dL; GLUCOSE [6]: 146 mg/dL; LACTATE DEHYDROGENASE [6]: 165.33 u/L; LIPASE [6]: 12 u/L; PHOSPHORUS [6]: 9.6 mg/dL; POTASSIUM [6]: 5.3 MEQ/L; SODIUM [6]: 146.6 MEQ/L; TOTAL BILIRUBIN [6]: 1.73 mg/dL; TOTAL PROTEIN [6]: 6.4 G/DL; URIC ACID [6]: 0.6 mg/dL
